Assay results as given in the NIST ThermoML archive (doi:10.1021/je100909b).

Test: mn = molality of the nth substance listed, in mol/kg
Conditions: 101 kPa, Liquid; for speed of sound: Sing-around technique in a fixed-path interferometer

CC(N)C(=O)O (stereo not drawn) [DL-2-aminopropanoic acid] + O
Conditions | speed of sound [m/s] | viscosity [mPa·s]
288.15 K, m1 = 0.04982 | – | 1.153
288.15 K, m1 = 0.07777 | 1471.3 | –
288.15 K, m1 = 0.1109 | – | 1.172
288.15 K, m1 = 0.1126 | 1473.8 | –
288.15 K, m1 = 0.2059 | 1480.4 | –
288.15 K, m1 = 0.2183 | – | 1.204
288.15 K, m1 = 0.2612 | – | 1.217
288.15 K, m1 = 0.3107 | – | 1.231
288.15 K, m1 = 0.3139 | 1488.1 | –
288.15 K, m1 = 0.3825 | 1493 | –
288.15 K, m1 = 0.4409 | 1497.2 | –
288.15 K, m1 = 0.4536 | – | 1.272
288.15 K, m1 = 0.5099 | – | 1.29
298.15 K, m1 = 0.07777 | 1501.8 | –
298.15 K, m1 = 0.07866 | – | 0.9082
298.15 K, m1 = 0.1126 | 1504.1 | –
298.15 K, m1 = 0.1934 | – | 0.9331
298.15 K, m1 = 0.2059 | 1510.4 | –
298.15 K, m1 = 0.3139 | 1517.7 | –
298.15 K, m1 = 0.3188 | – | 0.9584
298.15 K, m1 = 0.3825 | 1522.3 | –
298.15 K, m1 = 0.4275 | – | 0.9832
298.15 K, m1 = 0.4409 | 1526.3 | –
298.15 K, m1 = 0.5485 | – | 1.013
298.15 K, m1 = 0.593 | – | 1.018
298.15 K, m1 = 0.7354 | – | 1.057
298.15 K, m1 = 0.8417 | – | 1.072
298.15 K, m1 = 0.9533 | – | 1.089
308.15 K, m1 = 0.04619 | – | 0.7279
308.15 K, m1 = 0.07777 | 1524.6 | –
308.15 K, m1 = 0.107 | – | 0.7391
308.15 K, m1 = 0.1126 | 1526.7 | –
308.15 K, m1 = 0.2059 | 1532.4 | –
308.15 K, m1 = 0.2145 | – | 0.7583
308.15 K, m1 = 0.2578 | – | 0.7656
308.15 K, m1 = 0.3071 | – | 0.7745
308.15 K, m1 = 0.3139 | 1539.1 | –
308.15 K, m1 = 0.3489 | – | 0.7816
308.15 K, m1 = 0.3825 | 1543.4 | –
308.15 K, m1 = 0.4409 | 1547 | –
308.15 K, m1 = 0.4983 | – | 0.8076
318.15 K, m1 = 0.04529 | – | 0.6029
318.15 K, m1 = 0.07777 | 1540.9 | –
318.15 K, m1 = 0.1064 | – | 0.6119
318.15 K, m1 = 0.1126 | 1542.8 | –
318.15 K, m1 = 0.2059 | 1548.2 | –
318.15 K, m1 = 0.2141 | – | 0.6275
318.15 K, m1 = 0.2564 | – | 0.6331
318.15 K, m1 = 0.3064 | – | 0.6409
318.15 K, m1 = 0.3139 | 1554.4 | –
318.15 K, m1 = 0.3492 | – | 0.647
318.15 K, m1 = 0.3825 | 1558.4 | –
318.15 K, m1 = 0.4205 | – | 0.6561
318.15 K, m1 = 0.4409 | 1561.8 | –

NCC(=O)O [2-aminoacetic acid] + O
Conditions | speed of sound [m/s] | viscosity [mPa·s]
288.15 K, m1 = 0.05362 | 1468.9 | –
288.15 K, m1 = 0.06844 | – | 1.149
288.15 K, m1 = 0.1287 | 1473.1 | –
288.15 K, m1 = 0.1393 | – | 1.159
288.15 K, m1 = 0.191 | 1476.6 | –
288.15 K, m1 = 0.2522 | 1480.1 | –
288.15 K, m1 = 0.2552 | – | 1.176
288.15 K, m1 = 0.3423 | 1485.3 | –
288.15 K, m1 = 0.3468 | – | 1.19
288.15 K, m1 = 0.4241 | – | 1.202
288.15 K, m1 = 0.5002 | – | 1.213
288.15 K, m1 = 0.5062 | 1494.9 | –
288.15 K, m1 = 0.562 | 1498.1 | –
298.15 K, m1 = 0.05362 | 1499.5 | –
298.15 K, m1 = 0.06025 | – | 0.8979
298.15 K, m1 = 0.1223 | – | 0.9055
298.15 K, m1 = 0.1287 | 1503.4 | –
298.15 K, m1 = 0.191 | 1506.8 | –
298.15 K, m1 = 0.1933 | – | 0.9138
298.15 K, m1 = 0.2522 | 1510 | –
298.15 K, m1 = 0.2798 | – | 0.9248
298.15 K, m1 = 0.3423 | 1514.9 | –
298.15 K, m1 = 0.4145 | – | 0.942
298.15 K, m1 = 0.4859 | – | 0.9507
298.15 K, m1 = 0.5062 | 1523.9 | –
298.15 K, m1 = 0.562 | 1526.9 | –
308.15 K, m1 = 0.05362 | 1522.5 | –
308.15 K, m1 = 0.06295 | – | 0.7261
308.15 K, m1 = 0.1083 | 1525.3 | –
308.15 K, m1 = 0.1248 | – | 0.7325
308.15 K, m1 = 0.1664 | 1528.2 | –
308.15 K, m1 = 0.2476 | – | 0.7455
308.15 K, m1 = 0.263 | 1533.1 | –
308.15 K, m1 = 0.3345 | – | 0.7536
308.15 K, m1 = 0.3737 | 1538.8 | –
308.15 K, m1 = 0.4195 | – | 0.7624
308.15 K, m1 = 0.4709 | – | 0.7672
308.15 K, m1 = 0.4967 | 1545.2 | –
318.15 K, m1 = 0.05362 | 1539 | –
318.15 K, m1 = 0.06088 | – | 0.6017
318.15 K, m1 = 0.1248 | – | 0.6064
318.15 K, m1 = 0.1287 | 1542.7 | –
318.15 K, m1 = 0.191 | 1545.7 | –
318.15 K, m1 = 0.2476 | – | 0.6176
318.15 K, m1 = 0.2522 | 1548.7 | –
318.15 K, m1 = 0.3345 | – | 0.6253
318.15 K, m1 = 0.3423 | 1553.1 | –
318.15 K, m1 = 0.4195 | – | 0.6329
318.15 K, m1 = 0.4709 | – | 0.6356
318.15 K, m1 = 0.5062 | 1561.3 | –
318.15 K, m1 = 0.562 | 1564.1 | –

CC(C)[C@H](N)C(=O)O [L-valine] + O
Conditions | speed of sound [m/s] | viscosity [mPa·s]
288.15 K, m1 = 0.02209 | – | 1.15
288.15 K, m1 = 0.03342 | – | 1.157
288.15 K, m1 = 0.03559 | 1469.6 | –
288.15 K, m1 = 0.04176 | – | 1.161
288.15 K, m1 = 0.04365 | 1470.5 | –
288.15 K, m1 = 0.04553 | – | 1.163
288.15 K, m1 = 0.0505 | – | 1.166
288.15 K, m1 = 0.05244 | 1471.4 | –
288.15 K, m1 = 0.05576 | – | 1.169
288.15 K, m1 = 0.0586 | 1472 | –
288.15 K, m1 = 0.07142 | 1473.4 | –
288.15 K, m1 = 0.08303 | 1474.6 | –
298.15 K, m1 = 0.02235 | – | 0.8987
298.15 K, m1 = 0.03324 | – | 0.9027
298.15 K, m1 = 0.03559 | 1500.1 | –
298.15 K, m1 = 0.04271 | – | 0.9064
298.15 K, m1 = 0.04365 | 1500.9 | –
298.15 K, m1 = 0.04775 | – | 0.9082
298.15 K, m1 = 0.05244 | 1501.7 | –
298.15 K, m1 = 0.05319 | – | 0.9101
298.15 K, m1 = 0.05741 | – | 0.9118
298.15 K, m1 = 0.0586 | 1502.3 | –
298.15 K, m1 = 0.07142 | 1503.6 | –
298.15 K, m1 = 0.08303 | 1504.7 | –
308.15 K, m1 = 0.02114 | – | 0.7258
308.15 K, m1 = 0.03147 | – | 0.7288
308.15 K, m1 = 0.03559 | 1523 | –
308.15 K, m1 = 0.04157 | – | 0.7319
308.15 K, m1 = 0.04365 | 1523.8 | –
308.15 K, m1 = 0.04549 | – | 0.7331
308.15 K, m1 = 0.04791 | – | 0.7337
308.15 K, m1 = 0.05244 | 1524.6 | –
308.15 K, m1 = 0.05464 | – | 0.7358
308.15 K, m1 = 0.0586 | 1525.1 | –
308.15 K, m1 = 0.07142 | 1526.3 | –
308.15 K, m1 = 0.08303 | 1527.3 | –
318.15 K, m1 = 0.0197 | 1538.1 | –
318.15 K, m1 = 0.02149 | – | 0.6014
318.15 K, m1 = 0.03166 | – | 0.6038
318.15 K, m1 = 0.04179 | – | 0.6061
318.15 K, m1 = 0.04365 | 1540 | –
318.15 K, m1 = 0.04524 | – | 0.6068
318.15 K, m1 = 0.0474 | – | 0.6073
318.15 K, m1 = 0.05244 | 1540.7 | –
318.15 K, m1 = 0.05407 | – | 0.609
318.15 K, m1 = 0.0586 | 1541.2 | –
318.15 K, m1 = 0.07142 | 1542.3 | –
318.15 K, m1 = 0.08303 | 1543.2 | –
